{"source": "patent US11517612B2", "about": "“Methods of treating inflammatory skin disorders” (NEPSONE EHF, priority 2016, dated 2022)", "system": "psoriatic lesion(s)", "assay": "Pre-psoriatic rim topical administration and treatment of psoriasis", "format": "in vivo", "procedure": "In one embodiment, a composition for topical administration was prepared using the peptide CGRP8-37 in a topical formulation at 20 μg/g. The effective range of the peptide in the composition can be between 0.00001 μg/g to […], depending on formulation and measured penetration parameters. The described composition was applied to an area at least partially around the psoriatic lesion(s), termed the pre-psoriatic rim, which was determined using well known laser Doppler flowmetry. […] 10 μg/g of the peptide was applied twice daily for 4 weeks. The composition was purposely not applied directly to the lesion. Without being held to a single theory, a novel local neural transport mechanism appears to be responsible for the effects observed by the pre-psoriatic rim administration resulting in treatment of psoriasis. Topical steroids are usually applied directly on lesions as is the convention for most topical treatments. Topical steroid molecules are much smaller (<500 Da) then CGRP8-37 (3100 Da) and therefore can more easily penetrate thick skin, topical steroids also have a side-effect on normal skin causing skin atrophy in some cases. That is why, for steroids and some other topical remedies e.g. tar (being irritating to normal skin), applying around the lesion is not recommended. […]", "note": "Where no end group is shown, it is not given here."}
{"substance": "CGRP8-37: CGRP derivative peptide, high affinity CGRP receptor antagonist; sequence SEQ ID NO:1 or SEQ ID NO:2; used in topical formulation (VTHRLAGLLSRSGGVVKNNFVPTNVGSKAF; ends and bridges not checked; UniProt P06881 90-119, looked up, fragment)", "values": [{"measurement": "improvement at low dosage", "setting": "applied around the lesion, doses as low as 1 μg/g of topical formulation", "result": "significant improvement"}, {"measurement": "response of psoriatic lesion (plaque on right shoulder, FIGS. 8-10)", "setting": "topical composition applied to pre-psoriatic rim, not directly to the lesion, 10 μg/g of the peptide twice daily for 4 weeks", "result": "clearing completely"}]}
